# Calls of active or inactive are those of the source. The calls are words filed in the database; no cut-off is given here.
# Experiments:
# [1] = target: Tyrosine-protein kinase HCK (Homo sapiens, UniProt P08631); assay: Inhibition of human HCK (230 to 497 residues) using […] as substrate after 40 mins by [gamma-33ATP] radiometric assay
# Ephrin type-B receptor 1 = Ephrin type-B receptor 1 (Homo sapiens, UniProt P54762); assay: Inhibition of recombinant human EphB1 (564 to end residues) using KVEKIGEGTYGVVYK as substrate incubated for 40 mins in presence of [gamma-33ATP] by scintillation counting based radiometry assay
# Mus musculus [2] = organism: Mus musculus; conditions: NOD-SCID, dose 30.0 mg/kg, time 18.0 day
# [3] = target: Serine/threonine-protein kinase Nek9 (Homo sapiens, UniProt Q8TD19); assay: Inhibition of recombinant human NEK9 (1 to 324 residues) using myelin basic protein as substrate measured after 40 mins in presence of [gamma33P]ATP by scintillation counting based radiometry assay
# [4] = target: MAP kinase-interacting serine/threonine-protein kinase 2 (Homo sapiens, UniProt Q9HBH9); assay: Inhibition of recombinant human MNK2 using myelin basic protein as substrate incubated for 40 mins in presence of [gamma-33ATP by scintillation counting based radiometry assay
# [5] = Growth inhibition of […] NIH3T3 cells harboring RET C634Y mutant incubated for 3 days by MTT assay; format: functional; conditions: NIH3T3, 72 h; time 3 day
# HepG2 = assay: Growth inhibition of human HepG2 cells incubated for 3 days by MTT assay; format: functional; conditions: HepG2, 72 h, time 3 day
# [6] = Growth inhibition of […] NIH3T3 cells incubated for 3 days by MTT assay; format: functional; conditions: NIH3T3, 72 h; time 3 day
# [7] = target: Mitogen-activated protein kinase kinase kinase 7 (Homo sapiens, UniProt O43318); assay: Inhibition of recombinant human TAK1 (1 to 303 residues) using casein as substrate incubated for 40 mins in presence of [gamma33P]ATP by scintillation counting based radiometry assay
# [8] = AUC (0 to t) in Sprague-Dawley rat at 10 mg/kg, po measured upto 24 hrs by LC-MS/MS analysis; format: ADME, organism-based; parameters: route oral, dose 10 mg/kg, time <=24; conditions: in vivo
# [9] = target: Mitogen-activated protein kinase 11 (Homo sapiens, UniProt Q15759); assay: Inhibition of recombinant human full length SAPK2b using myelin basic protein as substrate incubated for 40 mins in presence of [gamma33P]ATP by scintillation counting based radiometry assay
# [10] = target: Discoidin domain-containing receptor 2 (Homo sapiens, UniProt Q16832); assay: Inhibition of recombinant human DDR2 (467 to end residues) using KKSRGDYMTMQIG as substrate incubated for 40 mins in presence of [gamma-33ATP] by scintillation counting based radiometry assay
# [11] = target: NT-3 growth factor receptor (Homo sapiens, UniProt Q16288); assay: Inhibition of recombinant human TRKC (510 to end residues) using GEEPLYWSFPAKKK as substrate incubated for 40 mins in presence of [gamma33P]ATP by scintillation counting based radiometry assay
# SGC-7901 = assay: Growth inhibition of human SGC-7901 cells incubated for 3 days by MTT assay; format: functional; conditions: SGC-7901, 72 h, time 3 day
# CDK9/cyclin T1 = CDK9/cyclin T1 (Homo sapiens, UniProt P50750); assay: Inhibition of recombinant full length human CDK9/cyclinT1 using KTFCGTPEYLAPE as substrate incubated for 40 mins in presence of [gamma-33ATP] by scintillation counting based radiometry assay; format: protein-complex assay
# HGC-27 = assay: Growth inhibition of human HGC-27 cells incubated for 3 days by MTT assay; format: functional; conditions: HGC-27, 72 h, time 3 day
# [12] = target: Mitogen-activated protein kinase 13 (Homo sapiens, UniProt O15264); assay: Inhibition of recombinant human full length SAPK4 using myelin basic protein as substrate incubated for 40 mins in presence of [gamma33P]ATP by scintillation counting based radiometry assay
# NIH3T3 = conditions: Homo sapiens, dose 10-30 mg/kg, time 18.0 day
# L02 = assay: Growth inhibition of human L02 cells incubated for 3 days by MTT assay; format: functional; conditions: L02, 72 h, time 3 day
# Mus musculus [13] = organism: Mus musculus; conditions: NOD-SCID, dose 30.0 mg/kg, time 18.0 day; remark: listed apart in the source
# [14] = Growth inhibition of human TT cells incubated for 10 days by MTT assay; format: functional; conditions: 240 h, time 10 day
# [15] = target: Mitogen-activated protein kinase 12 (Homo sapiens, UniProt P53778); assay: Inhibition of recombinant human full length SAPK3 using myelin basic protein as substrate incubated for 40 mins in presence of [gamma33P]ATP by scintillation counting based radiometry assay
# [16] = target: Tyrosine-protein kinase Blk (Homo sapiens, UniProt P51451); assay: Inhibition of recombinant full length human BLK using poly(Glu, Tyr) 4:1 as substrate incubated for 40 mins in presence of [gamma-33ATP] by scintillation counting based radiometry assay
# [17] = target: Mitogen-activated protein kinase kinase kinase 20 (Homo sapiens, UniProt Q9NYL2); assay: Inhibition of recombinant full-length human ZAK using MBP as substrate incubated for 40 mins in presence of [gamma33P]ATP by scintillation counting based radiometry assay
# Aurora kinase B = Aurora kinase B (Homo sapiens, UniProt Q96GD4); assay: Inhibition of recombinant full length human Aurora B using AKRRRLSSLRA as substrate incubated for 40 mins in presence of [gamma-33ATP] by scintillation counting based radiometry assay
# Angiopoietin-1 receptor = Angiopoietin-1 receptor (Homo sapiens, UniProt Q02763); assay: Inhibition of recombinant human TIE2 (771 to end residues) using poly(Glu, Tyr) 4:1 as substrate incubated for 40 mins in presence of [gamma33P]ATP by scintillation counting based radiometry assay
# [18] = target: Serine/threonine-protein kinase TAO2 (Homo sapiens, UniProt Q9UL54); assay: Inhibition of recombinant human TAO2 (1 to 320 residues) using myelin basic protein as substrate incubated for 40 mins in presence of [gamma33P]ATP by scintillation counting based radiometry assay
# [19] = target: RAF proto-oncogene serine/threonine-protein kinase (Homo sapiens, UniProt P04049); assay: Inhibition of recombinant human C-Raf (306 to end residues) poly(Glu, Tyr) 4:1 as substrate incubated 40 mins in presence of [gamma-33ATP] by scintillation counting based radiometry assay
# Mus musculus [20] = organism: Mus musculus; conditions: NOD-SCID, dose 30.0 mg/kg, time 18.0 day; remark: listed apart in the source
# SK-MEL-1 = assay: Growth inhibition of human SK-MEL-1 cells incubated for 3 days by MTT assay; format: functional; conditions: SK-MEL-1, 72 h, time 3 day
# [21] = target: Homeodomain-interacting protein kinase 4 (Homo sapiens, UniProt Q8NE63); assay: Inhibition of human HIPK4 using RRRFRPASPLRGPPK as substrate after 40 mins by [gamma-33ATP] radiometric assay
# [22] = target: Casein kinase I isoform delta (Homo sapiens, UniProt P48730); assay: Inhibition of recombinant human CK1delta (1 to 294 residues) using KRRRALS(p)VASLPGL as substrate incubated for 40 mins in presence of [gamma-33ATP] by scintillation counting based radiometry assay
# [23] = Growth inhibition of […] BaF3 cells harboring BCR abl mutant incubated for 3 days by MTT assay; format: functional; conditions: BaF3, 72 h; time 3 day
# Chain of Serine/threonine-protein kinase TAO2 (Q9UL54 whole entry, the tested form may be a part): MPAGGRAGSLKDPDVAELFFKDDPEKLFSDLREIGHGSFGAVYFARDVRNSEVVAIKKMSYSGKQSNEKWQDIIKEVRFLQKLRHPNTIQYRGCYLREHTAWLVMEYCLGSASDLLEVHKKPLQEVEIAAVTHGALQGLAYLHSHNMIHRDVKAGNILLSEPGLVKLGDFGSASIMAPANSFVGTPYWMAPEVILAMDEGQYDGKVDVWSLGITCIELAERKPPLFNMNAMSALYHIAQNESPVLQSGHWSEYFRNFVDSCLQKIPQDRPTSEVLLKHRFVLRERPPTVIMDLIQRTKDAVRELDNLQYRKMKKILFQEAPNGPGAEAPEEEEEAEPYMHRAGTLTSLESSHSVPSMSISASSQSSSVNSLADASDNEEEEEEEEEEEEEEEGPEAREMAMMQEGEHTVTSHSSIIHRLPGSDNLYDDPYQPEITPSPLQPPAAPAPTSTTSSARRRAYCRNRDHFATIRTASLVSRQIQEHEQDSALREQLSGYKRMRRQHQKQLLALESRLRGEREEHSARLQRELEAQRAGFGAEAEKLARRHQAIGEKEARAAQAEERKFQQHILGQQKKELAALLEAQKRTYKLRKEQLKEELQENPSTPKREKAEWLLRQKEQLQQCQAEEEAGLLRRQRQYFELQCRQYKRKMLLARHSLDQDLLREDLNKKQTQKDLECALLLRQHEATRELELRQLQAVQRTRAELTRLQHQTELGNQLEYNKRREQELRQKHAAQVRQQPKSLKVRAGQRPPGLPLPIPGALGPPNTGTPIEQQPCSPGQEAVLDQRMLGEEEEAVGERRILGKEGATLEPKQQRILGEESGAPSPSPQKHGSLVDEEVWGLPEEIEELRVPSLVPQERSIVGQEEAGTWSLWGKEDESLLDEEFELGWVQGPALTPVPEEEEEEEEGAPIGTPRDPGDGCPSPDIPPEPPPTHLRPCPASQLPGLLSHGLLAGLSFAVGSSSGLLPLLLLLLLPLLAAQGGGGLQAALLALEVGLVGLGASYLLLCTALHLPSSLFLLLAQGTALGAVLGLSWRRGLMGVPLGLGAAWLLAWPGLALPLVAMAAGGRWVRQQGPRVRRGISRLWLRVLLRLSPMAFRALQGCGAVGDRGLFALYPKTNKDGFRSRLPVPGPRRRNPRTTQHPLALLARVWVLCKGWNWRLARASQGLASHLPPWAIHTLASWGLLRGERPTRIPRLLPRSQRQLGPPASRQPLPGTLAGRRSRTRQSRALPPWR
# Chain of Mitogen-activated protein kinase 11 (Q15759 whole entry, the tested form may be a part): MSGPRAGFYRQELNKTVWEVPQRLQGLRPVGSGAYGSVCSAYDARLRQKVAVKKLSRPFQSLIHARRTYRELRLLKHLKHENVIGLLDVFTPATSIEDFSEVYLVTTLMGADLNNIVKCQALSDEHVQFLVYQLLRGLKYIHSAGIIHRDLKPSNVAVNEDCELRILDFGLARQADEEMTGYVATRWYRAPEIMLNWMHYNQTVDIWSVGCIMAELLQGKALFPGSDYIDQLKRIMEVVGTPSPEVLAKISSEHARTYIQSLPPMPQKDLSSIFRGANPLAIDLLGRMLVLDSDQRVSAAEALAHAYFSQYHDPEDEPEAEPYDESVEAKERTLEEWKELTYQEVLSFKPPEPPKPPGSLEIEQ
# Chain of CDK9/cyclin T1 (O60563 whole entry): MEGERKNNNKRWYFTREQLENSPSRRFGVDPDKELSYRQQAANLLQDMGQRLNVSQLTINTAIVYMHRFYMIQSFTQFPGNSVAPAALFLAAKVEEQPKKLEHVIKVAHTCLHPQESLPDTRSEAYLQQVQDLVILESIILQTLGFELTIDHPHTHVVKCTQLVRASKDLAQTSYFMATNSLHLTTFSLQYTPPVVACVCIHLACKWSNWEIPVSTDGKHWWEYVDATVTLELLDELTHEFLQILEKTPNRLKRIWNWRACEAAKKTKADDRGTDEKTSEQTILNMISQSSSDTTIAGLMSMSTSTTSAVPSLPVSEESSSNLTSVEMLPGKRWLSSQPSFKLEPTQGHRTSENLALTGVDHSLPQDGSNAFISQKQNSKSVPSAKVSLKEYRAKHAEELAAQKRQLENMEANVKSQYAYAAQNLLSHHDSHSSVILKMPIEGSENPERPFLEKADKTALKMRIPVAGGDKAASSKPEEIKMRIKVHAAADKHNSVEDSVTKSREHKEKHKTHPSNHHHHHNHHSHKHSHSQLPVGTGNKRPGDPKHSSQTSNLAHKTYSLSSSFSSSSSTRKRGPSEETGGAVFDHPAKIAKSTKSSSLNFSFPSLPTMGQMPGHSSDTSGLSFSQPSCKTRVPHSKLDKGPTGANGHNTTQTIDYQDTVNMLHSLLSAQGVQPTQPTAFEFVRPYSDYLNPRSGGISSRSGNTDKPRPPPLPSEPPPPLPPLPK
# Chain of CDK9/cyclin T1 (P50750 whole entry): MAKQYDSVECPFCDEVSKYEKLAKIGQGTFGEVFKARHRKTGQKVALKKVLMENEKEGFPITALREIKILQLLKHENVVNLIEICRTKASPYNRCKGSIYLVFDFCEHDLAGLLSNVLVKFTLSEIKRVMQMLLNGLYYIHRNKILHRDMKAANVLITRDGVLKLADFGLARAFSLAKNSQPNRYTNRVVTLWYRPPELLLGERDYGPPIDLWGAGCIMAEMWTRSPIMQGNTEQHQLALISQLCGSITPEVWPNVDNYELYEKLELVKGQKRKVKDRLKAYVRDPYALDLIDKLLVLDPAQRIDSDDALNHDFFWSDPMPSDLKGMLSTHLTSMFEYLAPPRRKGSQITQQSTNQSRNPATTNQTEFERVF
# Chain of Mitogen-activated protein kinase kinase kinase 20 (Q9NYL2 whole entry): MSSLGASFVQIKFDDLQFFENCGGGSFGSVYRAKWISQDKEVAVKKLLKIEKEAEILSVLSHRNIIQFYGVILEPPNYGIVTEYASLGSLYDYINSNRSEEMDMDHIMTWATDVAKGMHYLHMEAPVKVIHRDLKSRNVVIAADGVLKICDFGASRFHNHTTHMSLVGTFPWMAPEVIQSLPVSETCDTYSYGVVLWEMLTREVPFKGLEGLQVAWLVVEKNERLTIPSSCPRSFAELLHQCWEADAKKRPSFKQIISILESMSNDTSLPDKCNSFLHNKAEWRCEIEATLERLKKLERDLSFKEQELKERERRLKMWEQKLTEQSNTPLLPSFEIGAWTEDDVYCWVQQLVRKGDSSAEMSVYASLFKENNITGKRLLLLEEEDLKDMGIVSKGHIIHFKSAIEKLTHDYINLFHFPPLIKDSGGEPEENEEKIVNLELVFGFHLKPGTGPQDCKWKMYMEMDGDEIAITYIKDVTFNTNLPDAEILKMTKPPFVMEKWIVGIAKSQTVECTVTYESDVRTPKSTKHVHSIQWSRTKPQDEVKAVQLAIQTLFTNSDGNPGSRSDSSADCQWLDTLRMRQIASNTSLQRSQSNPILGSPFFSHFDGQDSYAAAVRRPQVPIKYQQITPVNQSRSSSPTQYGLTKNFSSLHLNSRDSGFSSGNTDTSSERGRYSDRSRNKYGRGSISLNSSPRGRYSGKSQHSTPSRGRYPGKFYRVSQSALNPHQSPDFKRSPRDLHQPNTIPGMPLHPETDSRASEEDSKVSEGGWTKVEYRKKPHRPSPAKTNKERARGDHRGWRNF
# Chain of Aurora kinase B (Q96GD4 whole entry): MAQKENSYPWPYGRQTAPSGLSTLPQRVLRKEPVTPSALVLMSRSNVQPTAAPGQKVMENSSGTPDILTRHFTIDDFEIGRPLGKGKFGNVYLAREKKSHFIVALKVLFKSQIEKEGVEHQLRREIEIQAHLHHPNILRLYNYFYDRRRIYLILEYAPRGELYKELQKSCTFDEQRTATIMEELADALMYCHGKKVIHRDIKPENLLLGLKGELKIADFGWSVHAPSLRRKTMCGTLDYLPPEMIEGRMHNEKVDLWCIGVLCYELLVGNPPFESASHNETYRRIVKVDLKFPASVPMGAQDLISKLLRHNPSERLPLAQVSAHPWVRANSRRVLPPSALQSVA
# Chain of Ephrin type-B receptor 1 (P54762 whole entry): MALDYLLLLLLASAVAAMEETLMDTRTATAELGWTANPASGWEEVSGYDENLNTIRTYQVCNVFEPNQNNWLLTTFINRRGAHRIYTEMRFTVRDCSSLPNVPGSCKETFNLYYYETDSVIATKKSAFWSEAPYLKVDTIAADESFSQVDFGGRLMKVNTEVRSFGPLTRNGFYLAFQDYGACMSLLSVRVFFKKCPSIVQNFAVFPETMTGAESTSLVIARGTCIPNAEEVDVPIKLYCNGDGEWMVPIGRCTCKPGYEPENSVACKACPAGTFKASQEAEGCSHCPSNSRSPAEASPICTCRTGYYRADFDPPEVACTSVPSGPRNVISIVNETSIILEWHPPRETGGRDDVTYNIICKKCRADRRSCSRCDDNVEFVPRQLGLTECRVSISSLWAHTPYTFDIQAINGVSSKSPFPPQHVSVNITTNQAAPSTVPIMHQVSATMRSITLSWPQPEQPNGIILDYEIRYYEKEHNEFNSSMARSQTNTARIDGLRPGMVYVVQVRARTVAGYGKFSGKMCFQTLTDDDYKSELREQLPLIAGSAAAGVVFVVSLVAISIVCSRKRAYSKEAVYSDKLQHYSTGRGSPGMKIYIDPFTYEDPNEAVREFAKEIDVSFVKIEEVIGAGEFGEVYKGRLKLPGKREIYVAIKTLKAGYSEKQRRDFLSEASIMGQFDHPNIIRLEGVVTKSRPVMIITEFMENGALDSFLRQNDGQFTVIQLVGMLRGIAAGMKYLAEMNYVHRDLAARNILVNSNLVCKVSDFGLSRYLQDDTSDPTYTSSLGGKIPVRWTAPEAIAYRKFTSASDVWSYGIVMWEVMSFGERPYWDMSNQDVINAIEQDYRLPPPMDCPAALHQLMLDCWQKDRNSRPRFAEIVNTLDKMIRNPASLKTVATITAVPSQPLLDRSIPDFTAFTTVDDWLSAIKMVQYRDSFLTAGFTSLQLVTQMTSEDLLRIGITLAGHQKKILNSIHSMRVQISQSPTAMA
structure (smiles),measurement,setting,value
CC(C)(C)c1cc(NC(=O)Nc2ccc(Nc3ncnc4c3OCCCN4)cc2)no1,IC50,[1],87 nM
same,IC50,Ephrin type-B receptor 1,388 nM
same,inhibition,Mus musculus [2],Active
same,IC50,[3],1800 nM
same,IC50,[4],136 nM
same,GI50,[5],80 nM
same,GI50,HepG2,> 10000 nM
same,GI50,[6],> 10000 nM
same,IC50,[7],484 nM
same,AUC(0-t) at 24 h,[8],441 µg·h/mL
same,IC50,[9],50 nM
same,IC50,[10],55 nM
same,IC50,[11],20 nM
same,GI50,SGC-7901,7280 nM
same,IC50,CDK9/cyclin T1,833 nM
same,GI50,HGC-27,5760 nM
same,IC50,[12],214 nM
same,TGI,NIH3T3,Dose-dependent effect
same,GI50,L02,> 10000 nM
same,inhibition,Mus musculus [13],Active
same,GI50,[14],65 nM
same,IC50,[15],199 nM
same,IC50,[16],1910 nM
same,IC50,[17],19 nM
same,IC50,Aurora kinase B,1630 nM
same,IC50,Angiopoietin-1 receptor,408 nM
same,IC50,[18],903 nM
same,IC50,[19],232 nM
same,inhibition,Mus musculus [20],Active
same,GI50,SK-MEL-1,> 10000 nM
same,IC50,[21],127 nM
same,IC50,[22],509 nM
same,GI50,[23],> 10000 nM

# Reference: ChEMBL document CHEMBL4765237, “Structural optimization and structure-activity relationship studies of N-phenyl-7,8-dihydro-6H-pyrimido[5,4-b][1,4]oxazin-4-amine derivatives as a new class of inhibitors of RET and its drug resistance mutants” (Eur J Med Chem, 2018)
